Consider 1 molecule from patent US9144569B2, “Methods of administering an aromatase inhibitor, prostaglandin and GnRH for regulating ovulation in cattle” (UNIVERSITY OF SASKATCHEWAN, priority 2010, dated 2015).

Marks after values point to notes of the source that are not given here.

Experiment [1] has as its system Hereford-cross beef heifers. As to the kind of experiment: Example II: 3-day letrozole regimen in heifers, ovarian ultrasonography. The experiment is classed as in vivo, cattle. Particulars: for Inter-ovulatory interval / Inter-wave interval: 85 μg/kg/day iv; for Inter-wave interval: mean±SEM. The procedure: Hereford-cross beef heifers, 14 to 20 months of age and weighing between 233 and 404 kg, were chosen from a herd of 50 animals maintained in outdoor corrals at the University of Saskatchewan Goodale Research Farm (52° North and 106° West). Heifers were fed alfalfa/grass hay and grain to gain approximately 1.3 kg per day and had water ad libitum during the experimental period from May to July. Heifers were initially examined by transrectal ultrasonography (7.5 MHz linear-array transducer, Aloka SSD-900; Tokyo, Japan) to confirm that they were postpubertal by the presence of a CL [33].
Four days after follicular ablation, heifers were given 500 μg of cloprostenol (PGF, Estrumate, Schering-Plough Animal Health, Pointe-Claire, QC, Canada) intramuscularly (im) to induce regression of the CL and to synchronize ovulation. The experiment was performed in two replicates (n=20-27 per replicate) and each heifer was used only once. In replicate 1, heifers were assigned randomly at the time of ovulation (Day 0) to the following groups and given a 3-day regimen of letrozole from Days 1 to 3 (n=5), Days 3 to 5 (n=5), Days 5 to 7 (n=5), or no treatment (control group, n=5). In replicate 2, heifers were similarly assigned to groups and given letrozole from Days 1 to 3, (n=5), Days 3 to 5 (n=4), or Days 5 to 7 (n=4), but untreated control heifers were arranged in three sub-groups to serve as contemporaneous controls for each letrozole-group during intensive blood sampling periods (i.e., control Days 1 to 3, n=4; control Days 3 to 5, n=4; and control Days 5 to 7, n=5). For practical purposes, the total dose of letrozole (250 μg/kg) was calculated on the basis of an average weight of 350 kg for all heifers and administered intravenously in daily divided doses over 3 days (85 μg/kg per day). For intravenous injection, letrozole was prepared in 95% ethanol to a final concentration of 5 mg/ml, resulting in an injection volume of 6 mL/day.
Ultrasound examinations were recorded on a sketch sheet in which each ovary and its structures (CL [37] and follicles ≧4 mm in diameter) were represented in size and relative location. Ovulation was defined as the disappearance of any follicle ≧8 mm between two consecutive daily examinations, and was confirmed by the subsequent development of a CL [39]. Follicular wave emergence was defined retrospectively as the day when the dominant follicle was first identified at a diameter of 4 or 5 mm. If the dominant follicle was not identified until it reached 6 or 7 mm, the previous day was considered the day of follicular wave emergence. The dominant follicle of a wave was defined as the largest antral follicle of that wave after deviation, and the first subordinate follicle as the second largest antral follicle originated from the same wave. The day of onset of follicular and luteal regression was defined as the first day of an apparent constant decrease in follicular and luteal diameters, respectively.
Statistical analyses were done using the Statistical Analysis System software package (SAS Learning Edition 9.1, 2006; SAS Institute Inc., Cary, N.C., USA). Time-series hormone data, plasma letrozole concentration, and follicular and luteal diameter profiles were analysed by repeated measures, using the PROC MIXED procedure. The main effects were treatment, time, and their interactions. […] Single point measurements (interwave and interovulatory intervals, interval from ovulation to onset of CL regression, mean and basal LH concentrations, LH pulse amplitude and frequency, and pharmacokinetic parameters for letrozole) were analysed by analysis of variance. […] If significant main effects or interactions (P≦0.05) were detected, Tukey's post-hoc test was used for multiple comparisons.

Experiment [2] deals with plasma LH. As to the kind of experiment: Example III: plasma LH after letrozole IV or IM. It is filed as in vivo, cattle. Particulars: 1 mg/kg IV or IM vs placebo. Here is the method:
Ovarian cyclicity in heifers was synchronized using transvaginal ultrasound-guided follicular ablation followed by a double dose of PGF 4 days after ablation. The ovaries were examined daily by transrectal ultrasonography to detect ovulation. Three days after ovulation, heifers were assigned randomly to four treatment groups and given letrozole at a dose of 1 mg/kg intravenously (in benzyl alcohol, n=10) or intramuscularly (in benzyl alcohol plus canola oil 1:1 v/v, n=10), or given a placebo intravenously (benzyl alcohol, n=5) or intramuscularly (benzyl alcohol plus canola oil 1:1 v/v, n=5). Ovarian structures were monitored by ultrasonography and blood samples were collected by jugular venipuncture twice daily from pre-treatment to post-treatment ovulations. Comparisons among groups were made by one-way ANOVA for single-point measurements and by ANOVA for repeated measures for time-series data.
Blood samples collected daily from treatment to post-treatment ovulation.
Endpoints are: Follicular diameter profiles; CL diameter profile; Circulating progesterone concentration; Circulating FSH and LH profiles; Letrozole profile and bioavailability; Circulating estradiol concentration Follicular fluid estradiol concentration).

The subject of experiment [3] is circulating estradiol. Particulars: boars [56]; cited from earlier work.

For `N#Cc1ccc(C(c2ccc(C#N)cc2)n2cncn2)cc1` [Letrozole, letrozole], the Inter-ovulatory interval in experiment [1] (Days 1 to 3, n=10) was 20.9 ± 0.46^a days; in experiment [1] (Days 3 to 5, n=9) it was 20.1 ± 0.49^a days; in experiment [1] (Days 5 to 7, n=9) it was 21.2 ± 0.49^a days. Also, the Inter-wave interval is on record as 8.9 ± 0.35^a days in experiment [1] (Days 1 to 3, n=10); 10.0 ± 0.37^ab days in experiment [1] (Days 3 to 5, n=9); 10.7 ± 0.37^b days in experiment [1] (Days 5 to 7, n=9); 10.7 days in experiment [1] (Days 5 to 7, n=9, listed as letrozole). Also, in experiment [1] (3-day regimen, treatment groups combined (n=28) vs untreated, P<0.01), the “growth of the extant dominant follicle compared to controls” value was “grew longer and to a greater diameter”. Moreover, the “diameter profile of the largest subordinate follicle compared to controls” value in experiment [1] (treated Days 1 to 3, P<0.05) is “larger”; in experiment [1] (treated Days 3 to 5), “intermediate”; in experiment [1] (treated Days 5 to 7) it was “intermediate”. Also, the “plasma LH concentrations among groups” value in experiment [2] was “did not differ”. The “reduction in circulating estradiol concentrations” value in experiment [3] is given as 88%.
